{"source": "patent US20070265196A1", "about": "“Method of Modulating Pro-Inflammatory and Inflammatory Activity Mediated by C-Reactive Protein” (MEDVET SCIENCE PTY., LTD., priority 2004, published 2007)", "key": {"[1]": {"test_system": "C-reactive protein-induced expression of E-selectin, VCAM-1 and ICAM-1", "experiment": "Inhibition of C-reactive protein-induced cell-surface adhesion molecule expression in HUVEC (flow cytometry)", "type": "cell-based, human", "conditions": "for effect on C-reactive protein-induced expression of adhesion molecules (E-selectin, ICAM-1, VCAM-1): 16 hrs preincubation in serum-free medium, then C-reactive protein 10 μg/ml for 5 hrs; for effect of antioxidant on PLPC-dependent inhibition of C-reactive protein-induced E-selectin expression: HUVEC preincubated 16 hrs with 35 μM PLPC in presence of the antioxidant", "procedure": "(§1) Human umbilical vein endothelial cells (HUVEC) and bovine aortic endothelial cells (BAEC) were isolated and cultured as described previously (Wall et al (1978)). Cells were used at passages 2 to 3 for HUVEC and passages 3-10 for BAEC. For detection of adhesion molecules, HUVEC were incubated overnight in Opti-MEM serum free medium (Gibco, Invitrogen Corporation) in the presence or absence of HDL and then treated with recombinant human C-reactive protein (Calbiochem) for 5 hrs unless indicated otherwise. After the treatment, cells were washed with medium M199 and incubated with primary monoclonal antibodies against E-selectin, VCAM-1, ICAM-1 or isotype-matched nonrelevant control antibodies for 30 min as described previously (Gamble et al (1993)). Cells were then incubated with fluorescein isothiocyanate-conjugated secondary antibody for 30 min. The cells were then harvested by trypsinization and fixed in 2.5% formaldehyde (antibody binding prior to trypsinizing has been reported to prevent the partial hydrolyzation of the surface adhesion molecules (Grabner et al (2000))). The expression of cell-surface adhesion molecules was measured as fluorescence intensity by use of a Coulter Epics Profile XL flow cytometer. Unless stated otherwise, the results represent mean fluorescence of the positive population±SEM from one experiment and are representative at least three independent experiments. Differences between means were evaluated by Student's t-tests. ANOVA was used to identify statistical significance of multiple comparisons.\nAs described previously (Ashby et al (1998)) the lipoproteins were isolated from normal healthy adult donors by sequential ultracentrifugation in their appropriate density range: total HDL 1.07<d<1.21 and LDL 1.019<d<1.055 g/ml. The resulting preparations of lipoproteins were dialyzed against endotoxin-free PBS (pH 7.4) prior to use. Discoidal reconstituted HDL containing apoA-I and PLPC, were prepared by the cholate dialysis method described by Matz (1982). Small unilamellar vesicles (SUVs) containing either PLPC or 1-palmitoyl-2-oleoyl-sn-glycero-3-phosphocholine (POPC), in butylated hydroxytoluene (BHT) (molar ratio of PC to BHT, 10:1), were prepared in PBS precisely as described by Jonas (1986). Oxidation of SUV was produced by incubation with 5 μM CuSO4 in the absence of BHT for 48 hours at 37° C."}, "[2]": {"test_system": "HUVEC expression of E-selectin, VCAM-1 and ICAM-1", "experiment": "Induction of adhesion molecule expression in HUVEC by the substance itself (flow cytometry)", "type": "cell-based, human", "conditions": "for effect of heating at 65° C. for 1 hour on activity (E-selectin induction): heated 65° C., serum free medium", "procedure": "as §1"}, "[3]": {"test_system": "adherence of U937 cells to C-reactive protein-activated BAEC", "experiment": "Adherence of U937 cells to C-reactive protein-treated BAEC", "type": "cell-based, bovine", "conditions": "BAEC incubated with C-reactive protein for 24 hours", "procedure": "U937 cells (CRL 1593.2; ATCC) were colorimetrically labelled with 0.2 mg/ml 3-(4,5-dimethylthiazol-2-yl)-2,5-diphenyltetrazolium bromide (MTT; Promega) in normal culture medium for 30 min at 37° C. The cells were collected by low-speed centrifugation and resuspended at a density of 2×10^5 cells/ml in medium without FCS. BAECs were seeded into 24-well plates and treated as desired in triplicate. After the treatment, BAECs were washed twice with RPMI-1640 medium. The MTT-labelled U937 cell suspension (200 μl/well) was then added into the BAEC cultures and incubated for 30 min at 37° C. Non-adherent cells were removed by rinsing the plates three times with PBS, and the number of adherent cells was counted under microscopy at least 4 fields per well."}}, "note": "“Also recorded” adds a separate entry of the source."}
{"compound": "CCCCC/C=C\\C/C=C\\CCCCCCCC(=O)OC(COC(=O)CCCCCCCCCCCCCCC)COP(=O)([O-])OCC[N+](C)(C)C", "note": "(stereo not drawn) [PLPC]", "values": [{"measurement": "C-reactive protein-induced E-selectin expression, substance added simultaneously with C-reactive protein", "setting": "[1]; HUVEC, 35 μM, C-reactive protein 10 μg/ml 5 hrs, no pre-incubation", "result": "not"}, {"measurement": "inhibitory effect on C-reactive protein-induced adhesion molecule expression after 1-hour pre-incubation", "setting": "[1]; HUVEC, 1-hour pre-incubation", "result": "no inhibitory effect"}, {"measurement": "inhibitory effect on C-reactive protein-induced adhesion molecule expression when added simultaneously with C-reactive protein", "setting": "[1]; HUVEC, no pre-incubation", "result": "no inhibitory effect"}, {"measurement": "persistence of inhibitory effect when removed from the medium after 16-hour pre-incubation before C-reactive protein activation", "setting": "[1]; HUVEC, washout", "result": "did not persist"}, {"measurement": "effect of the substance alone on adhesion molecule expression", "setting": "[2]; HUVEC", "result": "had no effect"}]}
{"compound": "CCCCCCCC/C=C\\CCCCCCCC(=O)O[C@H](COC(=O)CCCCCCCCCCCCCCC)COP(=O)([O-])OCC[N+](C)(C)C", "note": "[POPC SUVs, 1-palmitoyl-2-oleoyl-sn-glycero-3-phosphocholine]", "values": [{"measurement": "effect on C-reactive protein-induced expression of adhesion molecules (E-selectin, ICAM-1, VCAM-1)", "setting": "[1]; HUVEC", "result": "no inhibitory effect"}, {"measurement": "effect of CuSO4-exposed phospholipid on C-reactive protein-induced adhesion molecule expression", "setting": "[1]; HUVEC, control exposed to CuSO4", "result": "did not affect"}]}
{"compound": "CC(Cc1ccc(O)c(O)c1)C(C)Cc1ccc(O)c(O)c1", "note": "(stereo not drawn) [nordihydroguaiaretic acid]", "values": [{"measurement": "effect of antioxidant on PLPC-dependent inhibition of C-reactive protein-induced E-selectin expression", "setting": "[1]", "result": "reversed in a dose-dependent manner"}, {"measurement": "effect of antioxidant on PLPC-dependent inhibition of C-reactive protein-induced E-selectin expression", "setting": "[1]; listed as NDGA", "result": "completely abolish"}]}
{"compound": "C[N+](C)(C)CCOP(=O)(O)O", "note": "[phosphorylcholine]", "values": [{"measurement": "effect on the C-reactive protein's activity", "setting": "[1]; up to 100 μM added to the medium", "result": "had no effect"}]}
{"compound": "CCCCCCCCCCC[C@@H](C[C@@H]1OC(=O)[C@H]1CCCCCC)OC(=O)[C@H](CC(C)C)NC=O", "note": "[tetrahydrolipstatin]", "values": [{"measurement": "effect of lipase inhibitor treatment of cells on the anti-inflammatory activity of PLPC", "setting": "[1]; HUVEC", "result": "not affected"}]}
{"compound": "Cc1c(C)c2c(c(C)c1O)CC[C@@](C)(CCC[C@H](C)CCC[C@H](C)CCCC(C)C)O2", "note": "[α-tocopherol]", "values": [{"measurement": "effect of antioxidant on PLPC-dependent inhibition of C-reactive protein-induced E-selectin expression", "setting": "[1]", "result": "reversed in a dose-dependent manner; also recorded: completely abolish"}, {"measurement": "effect of the substance alone on adhesion molecule expression", "setting": "[2]; HUVEC", "result": "had no effect"}]}
{"compound": "C-reactive protein: recombinant human C-reactive protein (Calbiochem), proinflammatory stimulus", "values": [{"measurement": "increase in adhesion of U937 cells to BAEC", "setting": "[3]", "result": "more than 6 fold"}, {"measurement": "concentration at which dose-dependent activity reaches a maximum", "setting": "[2]; E-selectin expression, HUVEC stimulated 5 hrs", "result": "10 to 20", "unit": "µg/mL"}, {"measurement": "cell surface expression of E-selectin VCAM-1 and ICAM-1", "setting": "[2]; HUVEC treated with C-reactive protein (10 μg/ml, 5 hrs)", "result": "significant increase"}, {"measurement": "inflammatory effect in fresh serum-free medium", "setting": "[2]; HUVEC, fresh (unconditioned) serum-free medium", "result": "no inflammatory effect"}, {"measurement": "effect of heating at 65° C. for 1 hour on activity (E-selectin induction)", "setting": "[2]; HUVEC", "result": "completely eliminated"}]}
{"compound": "Lipopolysaccharide [LPS]", "values": [{"measurement": "induction of adhesion molecule expression", "setting": "[2]; HUVEC, concentrations of up to 1 ng/ml", "result": "insufficient to induce"}, {"measurement": "effect of heating at 65° C. for 1 hour on activity (E-selectin induction)", "setting": "[2]; HUVEC", "result": "did not alter"}]}
{"compound": "lipid-free apoA-I: lipid-free apolipoprotein A-I, the protein component of rHDL", "values": [{"measurement": "effect on C-reactive protein-induced expression of adhesion molecules (E-selectin, ICAM-1, VCAM-1)", "setting": "[1]; HUVEC", "result": "had no effect"}]}
